Source: patent US20020035061A1, “COMPOSITIONS AND METHODS FOR TREATING INFECTIONS USING CATIONIC PEPTIDES ALONE OR IN COMBINATION WITH ANTIBIOTICS” (priority 1996, published 2002)

Tested on: bacterial isolates
Assay: microbe, parasite or virus in culture
Type: cell-based

KKWWRRALQGLKTAGPAIQSVLNK [MBI 21A2]
Peptide MIC Alone (1. Amikacin, A. baumannii ABI001): 8 µg/mL | Peptide MIC Alone (1. Amikacin, A. baumannii ABI003): 8 µg/mL | Peptide MIC Alone (1. Amikacin, E. faecalis EFS008): >128 µg/mL | Peptide MIC Alone (1. Amikacin, E. faecium EFM004): >128 µg/mL | Peptide MIC Alone (1. Amikacin, P. aeruginosa PA022): 8 µg/mL | Peptide MIC Alone (1. Amikacin, S. aureus SA025 MRSA): 2 µg/mL | Peptide MIC Alone (1. Amikacin, S. epidermidis SE003): >128 µg/mL | Peptide MIC Alone (1. Amikacin, S. maltophilia SMA018): 16 µg/mL | Peptide MIC Alone (1. Amikacin, S. maltophilia SMA022): >128 µg/mL | Peptide MIC Alone (3. Ciprofloxacin, P. aeruginosa PA4): >128 µg/mL | Peptide MIC Alone (3. Ciprofloxacin, P. aeruginosa PA41): 64 µg/mL | Peptide MIC Alone (3. Ciprofloxacin, S. aureus SA25): 16 µg/mL | Peptide MIC Alone (3. Ciprofloxacin, S. aureus SA93): 16 µg/mL | Peptide MIC Alone (4. Gentamicin, A. baumannii ABI002): 8 µg/mL | Peptide MIC Alone (4. Gentamicin, P. aeruginosa PA022): 8 µg/mL | Peptide MIC Alone (4. Gentamicin, S. aureus SA025 MRSA): 8 µg/mL | Peptide MIC Alone (4. Gentamicin, S. maltophilia SMA019): 16 µg/mL | Peptide MIC Alone (4. Gentamicin, S. maltophilia SMA020): 16 µg/mL | Peptide MIC Alone (4. Gentamicin, S. maltophilia SMA021): 16 µg/mL | Amikacin MIC + Peptide (A. baumannii ABI001): 32 µg/mL | Peptide MIC + Amikacin (A. baumannii ABI001): 0.125 µg/mL | Gentamicin MIC + Peptide (A. baumannii ABI002): 16 µg/mL | Peptide MIC + Gentamicin (A. baumannii ABI002): 0.5 µg/mL | Amikacin MIC + Peptide (A. baumannii ABI003): 8 µg/mL | Peptide MIC + Amikacin (A. baumannii ABI003): 4 µg/mL | Peptide MIC + Piperacillin (E. coli 1): 2 µg/mL | Piperacillin MIC + Peptide (E. coli 1): 8 µg/mL | Peptide MIC Alone (E. coli 1, Piperacillin section): 4 µg/mL | Amikacin MIC + Peptide (E. faecalis EFS008): 32 µg/mL | Peptide MIC + Amikacin (E. faecalis EFS008): 0.125 µg/mL | Amikacin MIC + Peptide (E. faecium EFM004): 64 µg/mL | Peptide MIC + Amikacin (E. faecium EFM004): 16 µg/mL | Peptide MIC + Piperacillin (H. influenzae 1): 64 µg/mL | Piperacillin MIC + Peptide (H. influenzae 1): 4 µg/mL | Peptide MIC Alone (H. influenzae 1, Piperacillin section): >128 µg/mL | Peptide MIC + Piperacillin (H. influenzae 2): 32 µg/mL | Piperacillin MIC + Peptide (H. influenzae 2): 32 µg/mL | Peptide MIC Alone (H. influenzae 2, Piperacillin section): >128 µg/mL | Peptide MIC + Piperacillin (P. aeruginosa 23): 16 µg/mL | Piperacillin MIC + Peptide (P. aeruginosa 23): 8 µg/mL | Peptide MIC Alone (P. aeruginosa 23, Piperacillin section): >128 µg/mL | Ciprofloxacin MIC + Peptide (P. aeruginosa PA4): 0.125 µg/mL | Peptide MIC + Ciprofloxacin (P. aeruginosa PA4): 64 µg/mL | Amikacin MIC + Peptide (P. aeruginosa PA022): 16 µg/mL | Gentamicin MIC + Peptide (P. aeruginosa PA022): 8 µg/mL | Peptide MIC + Amikacin (P. aeruginosa PA022): 2 µg/mL | Peptide MIC + Gentamicin (P. aeruginosa PA022): 2 µg/mL | Ciprofloxacin MIC + Peptide (P. aeruginosa PA41): 1 µg/mL | Peptide MIC + Ciprofloxacin (P. aeruginosa PA41): 16 µg/mL | Peptide MIC + Piperacillin (S. aureus 19 MRSA): 2 µg/mL | Piperacillin MIC + Peptide (S. aureus 19 MRSA): 64 µg/mL | Peptide MIC Alone (S. aureus 19 MRSA, Piperacillin section): >128 µg/mL | Ciprofloxacin MIC + Peptide (S. aureus SA25): 0.5 µg/mL | Peptide MIC + Ciprofloxacin (S. aureus SA25): 4 µg/mL | Amikacin MIC + Peptide (S. aureus SA025 MRSA): 2 µg/mL | Gentamicin MIC + Peptide (S. aureus SA025 MRSA): 32 µg/mL | Peptide MIC + Amikacin (S. aureus SA025 MRSA): 1 µg/mL | Peptide MIC + Gentamicin (S. aureus SA025 MRSA): 1 µg/mL | Ciprofloxacin MIC + Peptide (S. aureus SA93): 8 µg/mL | Peptide MIC + Ciprofloxacin (S. aureus SA93): 2 µg/mL | Peptide MIC + Piperacillin (S. aureus SB2MRSA): 2 µg/mL | Piperacillin MIC + Peptide (S. aureus SB2MRSA): 64 µg/mL | Peptide MIC Alone (S. aureus SB2MRSA, Piperacillin section): 32 µg/mL | Amikacin MIC + Peptide (S. epidermidis SE003): 4 µg/mL | Peptide MIC + Amikacin (S. epidermidis SE003): 64 µg/mL | Peptide MIC + Piperacillin (S. maltophilia 6): 16 µg/mL | Piperacillin MIC + Peptide (S. maltophilia 6): 64 µg/mL | Peptide MIC Alone (S. maltophilia 6, Piperacillin section): 128 µg/mL | Peptide MIC + Piperacillin (S. maltophilia 14): 16 µg/mL | Piperacillin MIC + Peptide (S. maltophilia 14): 4 µg/mL | Peptide MIC Alone (S. maltophilia 14, Piperacillin section): 32 µg/mL | Amikacin MIC + Peptide (S. maltophilia SMA018): 64 µg/mL | Peptide MIC + Amikacin (S. maltophilia SMA018): 4 µg/mL | Gentamicin MIC + Peptide (S. maltophilia SMA019): 16 µg/mL | Peptide MIC + Gentamicin (S. maltophilia SMA019): 4 µg/mL | Gentamicin MIC + Peptide (S. maltophilia SMA020): 16 µg/mL | Peptide MIC + Gentamicin (S. maltophilia SMA020): 4 µg/mL | Gentamicin MIC + Peptide (S. maltophilia SMA021): 16 µg/mL | Peptide MIC + Gentamicin (S. maltophilia SMA021): 4 µg/mL | Amikacin MIC + Peptide (S. maltophilia SMA022): 32 µg/mL | Peptide MIC + Amikacin (S. maltophilia SMA022): 32 µg/mL | Peptide MIC + Piperacillin (S. marcescens 1): 4 µg/mL | Piperacillin MIC + Peptide (S. marcescens 1): 16 µg/mL | Peptide MIC Alone (S. marcescens 1, Piperacillin section): >128 µg/mL | FIC (peptide + Amikacin, A. baumannii ABI001): 0.52 | FIC (peptide + Amikacin, A. baumannii ABI003): 0.52 | FIC (peptide + Amikacin, E. faecalis EFS008): 0.50 | FIC (peptide + Amikacin, E. faecium EFM004): 0.56 | FIC (peptide + Amikacin, P. aeruginosa PA022): 0.50 | FIC (peptide + Amikacin, S. aureus SA025 MRSA): 0.56 | FIC (peptide + Amikacin, S. epidermidis SE003): 0.38 | FIC (peptide + Amikacin, S. maltophilia SMA018): 0.50 | FIC (peptide + Amikacin, S. maltophilia SMA022): 0.25 | FIC (peptide + Ciprofloxacin, P. aeruginosa PA4): 0.50 | FIC (peptide + Ciprofloxacin, P. aeruginosa PA41): 0.50 | FIC (peptide + Ciprofloxacin, S. aureus SA25): 0.50 | FIC (peptide + Ciprofloxacin, S. aureus SA93): 0.38 | FIC (peptide + Gentamicin, A. baumannii ABI002): 0.56 | FIC (peptide + Gentamicin, P. aeruginosa PA022): 0.50 | FIC (peptide + Gentamicin, S. aureus SA025 MRSA): 0.63 | FIC (peptide + Gentamicin, S. maltophilia SMA019): 0.50 | FIC (peptide + Gentamicin, S. maltophilia SMA020): 0.50 | FIC (peptide + Gentamicin, S. maltophilia SMA021): 0.50 | FIC (peptide + Piperacillin, E. coli 1): 0.53 | FIC (peptide + Piperacillin, H. influenzae 1): 0.31 | FIC (peptide + Piperacillin, H. influenzae 2): 0.38 | FIC (peptide + Piperacillin, P. aeruginosa 23): 0.19 | FIC (peptide + Piperacillin, S. aureus 19 MRSA): 0.51 | FIC (peptide + Piperacillin, S. aureus SB2MRSA): 0.56 | FIC (peptide + Piperacillin, S. maltophilia 6): 0.38 | FIC (peptide + Piperacillin, S. maltophilia 14): 0.53 | FIC (peptide + Piperacillin, S. marcescens 1): 0.27
